According to BindingDB's records for doi:10.1016/j.bmc.2015.05.058 (Washington University, 2015):

The compounds below were run against T1, Vesicular acetylcholine transporter (Homo sapiens, UniProt Q16572) (assay: Displacement of [3H]-vesamicol from human VAChT after 24 hrs by liquid scintillation spectrometry analysis).
T1 sequence (Q16572 whole entry): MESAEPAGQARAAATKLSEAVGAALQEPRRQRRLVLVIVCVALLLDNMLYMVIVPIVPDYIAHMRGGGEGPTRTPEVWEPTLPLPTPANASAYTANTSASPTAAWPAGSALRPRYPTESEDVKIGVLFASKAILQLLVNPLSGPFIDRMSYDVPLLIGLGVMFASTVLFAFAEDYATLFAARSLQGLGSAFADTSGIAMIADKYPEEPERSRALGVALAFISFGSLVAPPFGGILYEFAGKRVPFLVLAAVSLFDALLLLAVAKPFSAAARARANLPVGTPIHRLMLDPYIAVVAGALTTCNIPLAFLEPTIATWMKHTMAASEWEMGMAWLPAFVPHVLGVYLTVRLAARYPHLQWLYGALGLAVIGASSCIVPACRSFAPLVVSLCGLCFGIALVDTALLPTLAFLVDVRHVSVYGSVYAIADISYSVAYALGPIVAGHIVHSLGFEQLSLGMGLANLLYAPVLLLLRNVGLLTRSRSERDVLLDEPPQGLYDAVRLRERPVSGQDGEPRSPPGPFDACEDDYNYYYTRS

| SMILES | Ki [nM] |
| --- | --- |
| O=C(c1ccc(F)cc1)C1CCN([C@@H]2Cc3c(cccc3OCCF)C[C@H]2O)CC1 | 1.6 |
| O=C(c1ccc(F)cc1)C1CCN(C2Cc3c(cccc3OCCF)CC2O)CC1 (stereo not drawn) | 13 |
| O=C(c1ccc(F)cc1)C1CCN([C@@H]2Cc3cccc(OCCF)c3C[C@H]2O)CC1 | 93 |
